# Assay results from publication PMC6952399, “Structures of lipoprotein signal peptidase II from Staphylococcus aureus complexed with antibiotics globomycin and myxovirescin” (Nature Communications, 2020).
# Several values for one entry are separate records, joined by “and”; a condition that tells them apart may be missing. Equal entries are not always repeated.
# Target: T1, LspPae (lipoprotein signal peptidase II from Pseudomonas aeruginosa) (Pseudomonas aeruginosa, UniProt Q9HVM5)
# T1 construct: made in house
# T1 sequence (Q9HVM5 1-169): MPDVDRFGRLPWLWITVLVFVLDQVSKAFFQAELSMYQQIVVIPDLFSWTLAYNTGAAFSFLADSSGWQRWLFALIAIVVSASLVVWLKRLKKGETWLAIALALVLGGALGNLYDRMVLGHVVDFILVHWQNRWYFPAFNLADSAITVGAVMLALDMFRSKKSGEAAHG
# Assay: FRET lipopeptide peptidase assay, LspPae
# Type: biochemical
# Conditions: for Fluorescence (RFU): FRET substrate + LspA + Globomycin; for Rate (RFU/min) / Normalised rate (Vi/V0): replicates 1 and 2; for Ki: estimated Ki’ (apparent inhibition constant)
# Protocol: FRET activity assays. A FRET based assay was developed using a labelled lipopeptide substrate (Supplementary Methods, Supplementary Fig. 3b) to directly monitor the protease activity of LspA. The optimised LspMrs assay buffer included 100 mM Tris/HCl pH 7.8, 150 mM NaCl and 0.09%(w/v) DDM. The corresponding optimized buffer for LspPae included 100 mM MES/NaOH pH 5.6, 150 mM NaCl and 0.05%(w/v) LMNG. All assays were performed at 37 °C.
# Reaction mixtures were prepared by vortexing (Clifton, cyclone CM-1) for 2 s and incubated at 37 °C, 800 rpm for 10 to 30 min. […] For dose-response assays, the final DMSO concentration in all reactions was 10%(v/v). Reaction mixtures were pipetted into wells of a 96- (Thermo Scientific) or a 384-well plate (4titude®) and incubated for 10 min at 37 °C in a SpectraMax M3 or a SpectraMax M5e plate reader (Molecular devices) prior to starting the assay. Assays were initiated by adding enzyme to a final concentration in the range 10–300 nM. Total reaction mixture volume was 50 μL. Reactions were monitored by fluorescence (Ex/Em, 320 nm/420 nm) for 30 to 60 min at 37 °C. Initial rates were calculated from the fluorescence intensity versus time progress curves (Supplementary Figs. 5 and 6). Occasionally, lag periods in the progress curves were observed (Supplementary Discussion). In such cases, initial rates were calculated after the lag period had passed (typically 1–5 min) and a steady rate had been established. Dose-response plots to determine IC50 values were generated using Prism® 5 software from GraphPad.
# It was possible to convert units of fluorescence change into moles of substrate consumed or products formed because pure products of LspA action on Abz-LALAGC*SS-nY-NH2 had been synthesized and were available. These were used to create a standard curve of fluorescence versus moles of the two products in equimolar amounts and to calculate specific activity values. […]
# One consequence of LspMrs having a relatively low specific activity is that, in order to get a reliable signal in activity assays, it was necessary to raise enzyme concentration. For kinetic measurements generally, it is desirable to use an enzyme concentration that is much lower than that of the substrate. In this situation, the usual assumption that added and free substrate concentrations are equal is valid. At high enzyme concentrations [E] therefore, and especially in the case of tight ligand binding where the inhibition constant, Ki, is small, a measured IC50 is limited to [E]/2 4–6. In such circumstances, a meaningful IC50 or Ki can only be obtained with considerable effort. With a few exceptions in the current study, this situation prevailed with both LspA orthologs where IC50 values came close to [E]/2 (Table 1 and Supplementary Table 3, Supplementary Fig. 6). […]
# Inhibition of LspA from E. coli by globomycin has been described as non-competitive7. The evidence provided in support o f this conclusion included an insensitivity of IC 50 to substrate concentration and the fact that the Vmax but not the K m changed with globomycin concentration. It was of interest to determine if a similar mode of inhibition applied to LspPae and LspMrs. From published work7–9 and from FRET-based kinetics measurements reported here, we know that globomycin binds with high affinity (Supplementary Fig. 6). Tight binding means that a more in-depth analysis must be carried out in order to identify inhibition type. For such analysis, it is important to know active enzyme concentration accurately. Fortunately, it was possible to use the property of tight inhibitor binding to measure the concentration of active enzyme ( Supplementary Fig. 18a). In the case of LspPae, the estimated value and the concentration determined spectroscopically agreed remarkably well. Parenthetically we note that knowing active LspPae concentration accurately enabled a characterization of the myxovirescin sample used in this study. Myxovirescin also binds tightly to LspA (Supplementary Fig. 6). […]
# [1] = Suppl. Fig. 18a, [Globomycin] 0.02 M
# [2] = Suppl. Fig. 18a, [Globomycin] 0.08 M
# [3] = Suppl. Fig. 18a, [Globomycin] 0.1 M
# [4] = Suppl. Fig. 18a, [Globomycin] 0.12 M
# [5] = Suppl. Fig. 18a, [Globomycin] 0.15 M
# [6] = Suppl. Fig. 18a, [Globomycin] 0.25 M
structure (smiles),measurement,setting,value
CCCCCC[C@H]1OC(=O)CNC(=O)[C@H]([C@H](C)O)NC(=O)[C@H](CO)NC(=O)[C@H]([C@H](C)CC)NC(=O)[C@H](CC(C)C)N(C)C(=O)[C@@H]1C [globomycin],inhibitor on-rates,5-fold molar excess of antibiotic added 20 to 30 min after start of reaction,fast
same,Fluorescence (RFU),time 26.5 min,472.821 RFU
same,Fluorescence (RFU),time 27 min,466.895 RFU
same,Fluorescence (RFU),time 27.5 min,470.521 RFU
same,Fluorescence (RFU),time 28 min,460.426 RFU
same,Fluorescence (RFU),time 28.5 min,463.196 RFU
same,Fluorescence (RFU),time 29 min,462.392 RFU
same,Fluorescence (RFU),time 29.5 min,469.501 RFU
same,Fluorescence (RFU),time 30 min,460.374 RFU
same,Fluorescence (RFU),time 30.5 min,459.928 RFU
same,Fluorescence (RFU),time 31 min,456.673 RFU
same,Fluorescence (RFU),time 31.5 min,461.288 RFU
same,Fluorescence (RFU),time 32 min,457.637 RFU
same,Fluorescence (RFU),time 32.5 min,459.756 RFU
same,Fluorescence (RFU),time 33 min,461.040 RFU
same,Fluorescence (RFU),time 33.5 min,455.548 RFU
same,Fluorescence (RFU),time 34 min,459.251 RFU
same,Fluorescence (RFU),time 34.5 min,461.912 RFU
same,Fluorescence (RFU),time 35 min,462.029 RFU
same,Fluorescence (RFU),time 35.5 min,459.871 RFU
same,Fluorescence (RFU),time 36 min,456.705 RFU
same,Fluorescence (RFU),time 36.5 min,457.128 RFU
same,Fluorescence (RFU),time 37 min,457.399 RFU
same,Fluorescence (RFU),time 37.5 min,460.693 RFU
same,Fluorescence (RFU),time 38 min,454.401 RFU
same,Fluorescence (RFU),time 38.5 min,457.430 RFU
same,Fluorescence (RFU),time 39 min,456.060 RFU
same,Fluorescence (RFU),time 39.5 min,454.659 RFU
same,Fluorescence (RFU),time 40 min,457.707 RFU
same,Fluorescence (RFU),time 40.5 min,450.482 RFU
same,Fluorescence (RFU),time 41 min,454.135 RFU
same,Fluorescence (RFU),time 41.5 min,449.262 RFU
same,Fluorescence (RFU),time 42 min,454.556 RFU
same,Fluorescence (RFU),time 42.5 min,450.049 RFU
same,Fluorescence (RFU),time 43 min,449.698 RFU
same,Fluorescence (RFU),time 43.5 min,456.047 RFU
same,Fluorescence (RFU),time 44 min,454.046 RFU
same,Fluorescence (RFU),time 44.5 min,452.003 RFU
same,Fluorescence (RFU),time 45 min,447.269 RFU
same,Fluorescence (RFU),time 45.5 min,454.250 RFU
same,Fluorescence (RFU),time 46 min,454.835 RFU
same,Fluorescence (RFU),time 46.5 min,452.245 RFU
same,Fluorescence (RFU),time 47 min,453.938 RFU
same,Fluorescence (RFU),time 47.5 min,452.432 RFU
same,Fluorescence (RFU),time 48 min,453.748 RFU
same,Fluorescence (RFU),time 48.5 min,446.264 RFU
same,Fluorescence (RFU),time 49 min,454.134 RFU
same,Fluorescence (RFU),time 49.5 min,458.300 RFU
same,Fluorescence (RFU),time 50 min,453.740 RFU
same,Fluorescence (RFU),time 50.5 min,458.019 RFU
same,Fluorescence (RFU),time 51 min,452.119 RFU
same,IC50,"IC50, 20 nM LspPae, substrate 2.5 µM",5.32 nM and 7.73 nM
same,IC50,"IC50, 20 nM LspPae, substrate 5 µM",6.43 nM and 11.1 nM
same,IC50,"IC50, 20 nM LspPae, substrate 7.5 µM",6.63 nM and 10.1 nM
same,IC50,"IC50, 20 nM LspPae, substrate 10 µM",7.18 nM and 9.58 nM
same,IC50,"IC50, 20 nM LspPae, substrate 20 µM",5.81 nM and 8.79 nM
same,IC50,"IC50, 20 nM LspPae, substrate 30 µM",5.73 nM and 9.79 nM
same,IC50,"IC50, FRET, 0.1 µM enzyme, 30 µM substrate, initial rates",57 nM
same,IC50,"IC50, LspPae concentration 10 nM",5.5 nM and 7.7 nM
same,IC50,"IC50, LspPae concentration 20 nM",10.6 nM and 17.6 nM
same,IC50,"IC50, LspPae concentration 40 nM",22.6 nM and 26.4 nM
same,IC50,"IC50, LspPae concentration 60 nM",27.8 nM and 39 nM
same,IC50,"IC50, LspPae concentration 80 nM",37.9 nM and 55.3 nM
same,IC50,"IC50, LspPae concentration 100 nM",52.6 nM and 61.3 nM
same,Rate (RFU/min),"LspPae + Globomycin, log [globomycin] (µM) -0.60",0.6 RFU/min and 0.7 RFU/min
same,Rate (RFU/min),"LspPae + Globomycin, log [globomycin] (µM) -0.82",0.856 RFU/min and 1.1 RFU/min
same,Rate (RFU/min),"LspPae + Globomycin, log [globomycin] (µM) -0.92",0.9 RFU/min and 0.95 RFU/min
same,Rate (RFU/min),"LspPae + Globomycin, log [globomycin] (µM) -1.00",4.1 RFU/min and 3.2 RFU/min
same,Rate (RFU/min),"LspPae + Globomycin, log [globomycin] (µM) -1.10",12.3 RFU/min and 11.9 RFU/min
same,Rate (RFU/min),"LspPae + Globomycin, log [globomycin] (µM) -1.30",31.7 RFU/min and 30.1 RFU/min
same,Rate (RFU/min),"LspPae + Globomycin, log [globomycin] (µM) -1.70",42.7 RFU/min
same,Normalised rate (Vi/V0),[1],0.8723 and 0.8656
same,Rate (RFU/min),[1],40.92 RFU/min and 41.48 RFU/min
same,Normalised rate (Vi/V0),"Suppl. Fig. 18a, [Globomycin] 0.05 M",0.6284 and 0.6375
same,Normalised rate (Vi/V0),[2],0.2526 and 0.2533
same,Rate (RFU/min),[2],11.85 RFU/min and 12.14 RFU/min
same,Normalised rate (Vi/V0),[3],0.07205 and 0.07513
same,Rate (RFU/min),[3],3.38 RFU/min and 3.6 RFU/min
same,Normalised rate (Vi/V0),[4],0.01684 and 0.01523
same,Rate (RFU/min),[4],0.79 RFU/min and 0.73 RFU/min
same,Normalised rate (Vi/V0),[5],0.0162 and 0.00793
same,Rate (RFU/min),[5],0.76 RFU/min and 0.38 RFU/min
same,Normalised rate (Vi/V0),[6],0.02132 and 0.008139
same,Rate (RFU/min),[6],1 RFU/min and 0.39 RFU/min
same,Rate (RFU/min),Suppl. Fig. 18a,29.48 RFU/min and 30.55 RFU/min
same,IC50,"average IC50, 20 nM LspPae, substrate 2.5 or 5 to 30 µM",~10 nM
same,Ki,"Morrison analysis, 30 µM substrate, 0.1 µM LspPae",0.74 ± 0.41 nM
same,Ki,"from dependence of IC50 on enzyme concentration, IC50 = Ki’ + [E]/2",1.96 ± 3 nM
